This assay relates to hypoxia-inducible endogenous VEGF expression. The assay is described as follows: Hypoxia-inducible endogenous VEGF expression ELISA in HeLa cells, dose-response (EC50, Table 3). The settings on record: Homo sapiens, read-out: ELISA EC50 μM. Background: ELISA stands for enzyme-linked immunosorbent assay.

`O=C(Oc1ccc(Cl)cc1)N1CCc2c([nH]c3ccc(Cl)cc23)C1c1ccc(OCCN2CCOCC2)cc1` (stereo not shown) [Compound 331]: the EC50 (usually the concentration at which the effect is half-maximal) was over 1 µM.

Take `CC(=O)N1CCN(CC(O)COc2ccc(C3c4[nH]c5ccc(Cl)cc5c4CCN3C(=O)Oc3ccc(Cl)cc3)cc2)CC1` (stereo not shown) [Compound 415]: the EC50 was under 0.008 µM.

As for `O=C(Oc1ccc(Cl)cc1)N1CCc2c([nH]c3ccc(Cl)cc23)C1c1ccc(OCCCN2CCCC2)cc1` (stereo not shown) [Compound 429], the concentration for a half-maximal effect (EC50) is under 0.008 µM.

In the case of `O=C(Oc1ccc(Cl)cc1)N1CCc2c([nH]c3ccc(Cl)cc23)C1c1ccc(OCCCN2CCCCC2)cc1` (stereo not shown) [Compound 433], the EC50 was under 0.008 µM.

On to `O=C(CN1CCOCC1)Nc1ccc(C2c3[nH]c4ccc(Cl)cc4c3CCN2C(=O)Oc2ccc(Cl)cc2)cc1` (stereo not shown) [Compound 454], for which the half-maximal effective concentration (EC50) is 0.008 to 0.04 µM.

As to `O=C(Oc1ccc(Cl)cc1)N1CCc2c([nH]c3ccc(Cl)cc23)C1c1ccc(OCC(O)CN2CCCC2)cc1` (stereo not shown) [Compound 462], the EC50 fell in the range of 0.008 to 0.04 µM.

On to `CN(C)CCCOc1ccc(C2c3[nH]c4ccc(Cl)cc4c3CCN2C(=O)Oc2ccc(Br)cc2)cc1` (stereo not shown) [Compound 468], for which the half-maximal effective concentration (EC50) is 0.008 to 0.04 µM.

Consider `CN(C)CCCOc1ccc(C2c3[nH]c4ccc(Cl)cc4c3CCN2C(=O)Oc2ccc(Cl)cc2)cc1` (stereo not shown) [Compound 479], for which the concentration for a half-maximal effect (EC50) fell in the range of 0.04 to 0.2 µM.

Regarding `CN(C)CC(=O)Nc1ccc(C2c3[nH]c4ccc(Cl)cc4c3CCN2C(=O)Oc2ccc(Cl)cc2)cc1` (stereo not shown) [Compound 491], the half-maximal effective concentration (EC50) fell in the range of 0.04 to 0.2 µM.

Regarding `CN(C)CCCOc1ccc(C2c3[nH]c4ccc(Cl)cc4c3CCN2C(=O)Oc2ccccc2)cc1` (stereo not shown) [Compound 493], the EC50 fell in the range of 0.04 to 0.2 µM.

For the compound `COc1ccc(OC(=O)N2CCc3c([nH]c4ccc(Cl)cc34)C2c2ccc(OCCCN(C)C)cc2)cc1` (stereo not shown) [Compound 501], the half-maximal effective concentration (EC50) was in the range of 0.04 to 0.2 µM.

Turning to `Cc1ccc(OC(=O)N2CCc3c([nH]c4ccc(Cl)cc34)C2c2ccc(OCCCN(C)C)cc2)cc1` (stereo not shown) [Compound 502], the EC50 fell in the range of 0.04 to 0.2 µM.

In the case of `O=C1NC2CSC(CCCCC(=O)OCCOc3ccc(C4c5[nH]c6ccc(Cl)cc6c5CCN4C(=O)Oc4ccc(Cl)cc4)cc3)C2N1` (stereo not shown) [Compound 544], the EC50 was under 0.008 µM.

Consider `O=C(Oc1ccc(Cl)cc1)Oc1ccc(C2c3[nH]c4ccc(Cl)cc4c3CCN2C(=O)Oc2ccc(Cl)cc2)cc1` (stereo not shown) [Compound 578], for which the EC50 fell in the range of 0.04 to 0.2 µM.

As to `CC(=O)N1CCN(CC(O)COc2ccc(C3c4[nH]c5ccc(Cl)cc5c4CCN3C(=O)Oc3ccc(F)cc3)cc2)CC1` (stereo not shown) [Compound 637], the concentration giving a half-maximal response (EC50) was under 0.008 µM.

Regarding `O=C(Oc1ccc(F)cc1)N1CCc2c([nH]c3ccc(Cl)cc23)C1c1ccc(OCC(O)CN2CCOCC2)cc1` (stereo not shown) [Compound 638], the EC50 was under 0.008 µM.

For `O=C(Oc1ccc(Cl)cc1)N1CCc2c([nH]c3ccc(Cl)cc23)C1c1ccc(OCCCCN2CCCC2)cc1` (stereo not shown) [Compound 698], the half-maximal effective concentration (EC50) lay in the range of 0.008 to 0.04 µM.

As to `O=C(Oc1ccc(Cl)cc1)N1CCc2c([nH]c3ccc(Cl)cc23)C1c1ccc(OCCCCNCCO)cc1` (stereo not shown) [Compound 699], the half-maximal effective concentration (EC50) lay within 0.008 to 0.04 µM.

Turning to `CC(C)NCCCCOc1ccc(C2c3[nH]c4ccc(Cl)cc4c3CCN2C(=O)Oc2ccc(Cl)cc2)cc1` (stereo not shown) [Compound 700], the EC50 fell in the range of 0.008 to 0.04 µM.

For the compound `COCCCNCCCCOc1ccc(C2c3[nH]c4ccc(Cl)cc4c3CCN2C(=O)Oc2ccc(Cl)cc2)cc1` (stereo not shown) [Compound 701], the EC50 fell in the range of 0.008 to 0.04 µM.

For `O=C(Oc1ccc(Cl)cc1)N1CCc2c([nH]c3ccc(Cl)cc23)C1c1ccc(OCCCCN2CCOCC2)cc1` (stereo not shown) [Compound 702], the EC50 was 0.008 to 0.04 µM.

With `O=C(Oc1ccc(Cl)cc1)N1CCc2c([nH]c3ccc(Cl)cc23)C1c1ccc(OCCCCN2CCCCC2)cc1` (stereo not shown) [Compound 703], the concentration for a half-maximal effect (EC50) was in the range of 0.008 to 0.04 µM.

Turning to `CN1CCN(CCCCOc2ccc(C3c4[nH]c5ccc(Cl)cc5c4CCN3C(=O)Oc3ccc(Cl)cc3)cc2)CC1` (stereo not shown) [Compound 704], the concentration for a half-maximal effect (EC50) is 0.04 to 0.2 µM.

For the compound `O=C(Oc1ccc(F)cc1)N1CCc2c([nH]c3ccc(Cl)cc23)C1c1ccc(OCCCCNCCO)cc1` (stereo not shown) [Compound 735], the EC50 was under 0.008 µM.

In the case of `O=C(Oc1ccc(F)cc1)N1CCc2c([nH]c3ccc(Cl)cc23)C1c1ccc(OCCCCN2CCCC2)cc1` (stereo not shown) [Compound 736], the EC50 is under 0.008 µM.

(Values after US20120202801A1, “METHODS FOR TREATING BREAST CANCER” (priority 2009, published 2012).)
